Source: US7935526B2, “hERG channel-expressing cell” (priority 2003, dated 2011)

Tested on: hERG channel-expressing cells
Experimental: Specifically, changes in membrane potential may be measured by performing the following operations in a manner as described below. The hERG channel-expressing cell of the invention is cultured for a specific period of time by the appropriate method as described above and suspended in a buffer suitable for measurement. […] Preferably, phosphate buffered saline (pH 7.4) is used. It is preferred that the cell suspension be prepared to give a concentration of 0.2×10^5 cells/ml to 1.0×10^6 cells/ml. Subsequently, the cell suspension is plated on plates (such as Biocoat Poly-D-Lysine 384-Well Black/Clear Plate; BECKTON DICKINSON) and cultured further Cells may be plated at 500 cells/well to 25000 cells/well. Preferably, cells are cultured for about two days after the plating. […] About one hour after the addition of Component A, changes in membrane potential may be measured with FLIPR (Molecular Devices) or FDSS6000 (Hamamatsu Photonics). […] Measurement may be performed at room temperature. hERG inhibitory activity may be calculated from the change in fluorescence intensity caused by the addition of the test compound. […]
About one hour after the addition of Component A, changes in membrane potential were measured with FDSS6000. […] Measurement was performed at room temperature. hERG inhibitory activity was calculated from the fluorescence intensity change for 5 min after the addition of the test substance. […]

In the case of [Cl-].[K+] [KCl], the “changes in membrane potential (fluorescence intensity change)” value is reported as “the membrane potential was depolarized”.
